Measured values as given in ChEMBL document CHEMBL5131530, “5-Oxopyrrolidine-3-carboxamides as Nav1.8 Inhibitors for Treating Pain Disorders, Cough Disorders, and Acute and Chronic Itch Disorders” (ACS Med Chem Lett, 2022).
pIC50: −log10 of the molar value.

Target: Sodium channel protein type 10 subunit alpha (Homo sapiens, UniProt Q9Y5Y9)
Assay: Inhibition of human Nav1.8 channel stably expressed in HEK293 cells assessed as sodium current flow at holding potential of -90mV by whole-cell voltage clamp assay
Assay type: cell-based

Chain of Sodium channel protein type 10 subunit alpha (Q9Y5Y9 whole entry, looked up): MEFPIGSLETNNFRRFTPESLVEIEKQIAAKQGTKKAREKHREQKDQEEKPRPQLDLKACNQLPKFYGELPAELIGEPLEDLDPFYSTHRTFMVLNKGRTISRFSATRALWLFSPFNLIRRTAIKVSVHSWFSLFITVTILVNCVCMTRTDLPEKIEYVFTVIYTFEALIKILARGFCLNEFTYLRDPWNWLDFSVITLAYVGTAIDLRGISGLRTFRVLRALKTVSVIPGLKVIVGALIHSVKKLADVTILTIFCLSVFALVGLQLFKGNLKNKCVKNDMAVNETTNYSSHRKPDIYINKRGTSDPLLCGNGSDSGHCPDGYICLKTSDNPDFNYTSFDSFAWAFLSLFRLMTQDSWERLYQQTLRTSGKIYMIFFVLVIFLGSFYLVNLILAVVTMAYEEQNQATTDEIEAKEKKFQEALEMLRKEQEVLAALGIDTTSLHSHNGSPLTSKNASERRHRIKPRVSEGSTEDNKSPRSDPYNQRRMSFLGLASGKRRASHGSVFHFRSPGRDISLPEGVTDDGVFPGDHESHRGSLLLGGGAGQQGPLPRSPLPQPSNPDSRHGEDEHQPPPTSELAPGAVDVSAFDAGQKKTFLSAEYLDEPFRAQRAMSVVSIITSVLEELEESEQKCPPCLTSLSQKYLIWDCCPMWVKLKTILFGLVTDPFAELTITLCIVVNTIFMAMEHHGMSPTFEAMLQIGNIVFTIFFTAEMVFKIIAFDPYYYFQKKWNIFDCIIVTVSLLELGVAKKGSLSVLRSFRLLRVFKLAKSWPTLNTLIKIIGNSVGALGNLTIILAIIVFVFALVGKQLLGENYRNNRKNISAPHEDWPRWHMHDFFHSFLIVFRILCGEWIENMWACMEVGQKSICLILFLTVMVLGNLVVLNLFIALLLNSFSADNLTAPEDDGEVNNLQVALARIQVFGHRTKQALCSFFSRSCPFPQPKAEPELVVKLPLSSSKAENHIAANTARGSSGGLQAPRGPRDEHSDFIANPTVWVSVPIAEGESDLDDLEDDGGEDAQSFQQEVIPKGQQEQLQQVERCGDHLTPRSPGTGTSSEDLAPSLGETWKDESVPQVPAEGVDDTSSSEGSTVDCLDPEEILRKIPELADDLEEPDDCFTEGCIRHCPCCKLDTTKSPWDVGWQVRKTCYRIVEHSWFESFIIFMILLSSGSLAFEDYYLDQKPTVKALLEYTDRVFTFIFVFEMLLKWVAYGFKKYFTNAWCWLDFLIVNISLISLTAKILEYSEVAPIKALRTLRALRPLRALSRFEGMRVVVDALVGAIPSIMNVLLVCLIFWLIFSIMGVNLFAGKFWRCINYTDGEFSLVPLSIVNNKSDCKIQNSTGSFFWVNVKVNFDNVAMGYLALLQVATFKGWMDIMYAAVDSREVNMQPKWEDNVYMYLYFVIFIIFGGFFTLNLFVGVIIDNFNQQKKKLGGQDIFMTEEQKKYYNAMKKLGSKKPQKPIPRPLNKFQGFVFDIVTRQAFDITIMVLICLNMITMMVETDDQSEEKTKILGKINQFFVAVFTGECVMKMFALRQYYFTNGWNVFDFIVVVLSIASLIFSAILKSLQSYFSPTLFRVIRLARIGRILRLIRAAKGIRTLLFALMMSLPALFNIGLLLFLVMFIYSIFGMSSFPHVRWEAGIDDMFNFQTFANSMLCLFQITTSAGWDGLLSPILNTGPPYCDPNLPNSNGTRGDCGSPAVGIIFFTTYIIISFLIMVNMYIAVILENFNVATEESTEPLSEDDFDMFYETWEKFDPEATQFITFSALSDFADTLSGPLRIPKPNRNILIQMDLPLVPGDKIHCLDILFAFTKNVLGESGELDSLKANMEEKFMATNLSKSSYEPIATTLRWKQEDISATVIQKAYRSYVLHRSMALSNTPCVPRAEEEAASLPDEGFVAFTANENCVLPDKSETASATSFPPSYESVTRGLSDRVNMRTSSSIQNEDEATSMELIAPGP

pIC50 | SMILES
8.92 | O=C1C[C@H](C(=O)NC(c2ccc(Cl)cc2)c2ccc(Cl)c(C(F)(F)F)c2)CN1 (stereo partly specified)
8.39 | O=C1C[C@H](C(=O)NC(c2ccc(Cl)cc2)c2ccc(OC(F)(F)F)cc2)CN1 (stereo partly specified)
8.54 | O=C1C[C@H](C(=O)NC(c2ccc(F)c(Cl)c2)c2ccc(F)c(C(F)(F)F)n2)CN1 (stereo partly specified)
8.47 | O=C1C[C@H](C(=O)NC(c2ccc(Cl)cc2)c2ccc(F)c(Cl)c2)CN1 (stereo partly specified)
8.59 | O=C1C[C@H](C(=O)NC(c2ccc(Cl)cc2)c2ccc(F)c(C(F)(F)F)c2)CN1 (stereo partly specified)
8.38 | O=C1C[C@H](C(=O)NC(c2cnc(C(F)(F)F)c(Cl)c2)c2ccc(F)c(Cl)c2F)CN1 (stereo partly specified)
